Test [1] has as its target JNK3/SAPK1b, Active (activated JNK3α1) (Homo sapiens, UniProt P53779). Nature of the test: Biochemical inhibition of JNK3 (HTRF enzyme inhibition assay). To be noted: for EC50: Table 1, compounds of formula (I), mean of n repeats; for IC50: Table 2, compounds of formula (II), read-out: JNK3 (nM) JNK activity (IC50). The method, then:
Enzyme inhibition studies were performed in 384-well polystyrene HTRF plates (Grainier) for 22 min at ambient temperature (˜22° C.) with 0.2 μM biotinylated FL-ATF2, 1 μM ATP, 0.75 nM activated JNK3α1 (with a control in the absence of kinase for determining the basal signal) in 10 μL volumes containing the final concentrations of the following: 50 mM Hepes, pH 7.0, 2.5 mM MgCl2, 0.1 mg/ml bovine serum albumin, 1 mM DL-dithiothreitol, 0.01% Triton X-100 (all from Sigma-Aldrich), and 5% DMSO (with or without compound). A 10 point titration of all compounds was carried out in 3-fold dilutions from 10 pM-2000 nM. After 22 min, the kinase reaction was terminated by addition of 10 μl of quenching solution [50 mM Hepes, pH 7.0, with 14 mM EDTA, 0.01% Triton X-100, 400 mM KF (all from Sigma-Aldrich)]. The detection reagents, streptavidin-x1APC (200 nM) and europium cryptate-labeled rabbit polyclonal anti-phospho-ATF2 (1 nM), were from Cis-Bio. The HTRF signal was detected using an Envision plate reader (Perkin Elmer) 1 h post-quenching. The data from multiple different experiments were averaged and presented as the mean±standard deviation. IC50 values were determined by fitting the data to the equation for a four-parameter logistic. p38 enzyme inhibition assays were performed identically to the JNK3 assays with the exception that the reaction time was […], 0.5 μM biotinylated FL-ATF2, ATP=11 μM, and p38 (Millipore)=3 nM.

In the next test the target is JNK2α2/SAPK1c, active (Homo sapiens, UniProt P45984). Nature of the test: Biochemical inhibition of JNK2. Conditions: Table 1, compounds of formula (I); mean of n repeats. The method, then: A 10 point titration of all compounds was carried out in 3-fold dilutions from 10 pM-2000 nM. After 22 min, the kinase reaction was terminated by addition of 10 μl of quenching solution [50 mM Hepes, pH 7.0, with 14 mM EDTA, 0.01% Triton X-100, 400 mM KF (all from Sigma-Aldrich)]. The detection reagents, streptavidin-x1APC (200 nM) and europium cryptate-labeled rabbit polyclonal anti-phospho-ATF2 (1 nM), were from Cis-Bio. The HTRF signal was detected using an Envision plate reader (Perkin Elmer) 1 h post-quenching. The data from multiple different experiments were averaged and presented as the mean±standard deviation.
Chain of JNK2α2/SAPK1c, active (P45984 whole entry): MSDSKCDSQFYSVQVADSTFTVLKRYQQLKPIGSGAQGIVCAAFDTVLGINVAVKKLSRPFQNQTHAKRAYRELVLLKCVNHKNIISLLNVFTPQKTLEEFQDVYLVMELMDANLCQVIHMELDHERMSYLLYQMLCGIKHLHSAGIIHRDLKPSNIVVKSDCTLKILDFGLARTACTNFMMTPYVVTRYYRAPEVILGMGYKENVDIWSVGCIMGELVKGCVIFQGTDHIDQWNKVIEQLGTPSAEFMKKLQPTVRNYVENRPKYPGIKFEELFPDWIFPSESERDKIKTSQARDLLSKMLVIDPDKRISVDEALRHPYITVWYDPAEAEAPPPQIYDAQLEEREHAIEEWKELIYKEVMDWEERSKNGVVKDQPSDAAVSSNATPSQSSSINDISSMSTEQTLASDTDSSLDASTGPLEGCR

The target in the next test is JNK1α1/SAP1α, Active (Homo sapiens, UniProt P45983). The test is described as follows: Biochemical inhibition of JNK1. To be noted: for EC50: Table 1, compounds of formula (I), mean of n repeats; for IC50: Table 2, compounds of formula (II), read-out: JNK1 (nM) JNK activity (IC50).
Chain of JNK1α1/SAP1α, Active (P45983 1-384 isoform P45983-2): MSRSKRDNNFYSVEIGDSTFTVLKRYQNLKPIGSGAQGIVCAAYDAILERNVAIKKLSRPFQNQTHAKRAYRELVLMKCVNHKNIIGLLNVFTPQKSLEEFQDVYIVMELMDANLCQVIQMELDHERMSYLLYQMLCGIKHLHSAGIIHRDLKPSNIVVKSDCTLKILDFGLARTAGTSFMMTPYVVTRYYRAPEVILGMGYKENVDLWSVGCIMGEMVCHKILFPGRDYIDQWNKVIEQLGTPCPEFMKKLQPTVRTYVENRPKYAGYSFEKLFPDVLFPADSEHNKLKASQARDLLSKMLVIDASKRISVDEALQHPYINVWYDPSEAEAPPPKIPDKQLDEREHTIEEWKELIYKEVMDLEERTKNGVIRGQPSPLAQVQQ

Chain of JNK3/SAPK1b, Active (activated JNK3α1) (P53779 1-422 isoform P53779-2): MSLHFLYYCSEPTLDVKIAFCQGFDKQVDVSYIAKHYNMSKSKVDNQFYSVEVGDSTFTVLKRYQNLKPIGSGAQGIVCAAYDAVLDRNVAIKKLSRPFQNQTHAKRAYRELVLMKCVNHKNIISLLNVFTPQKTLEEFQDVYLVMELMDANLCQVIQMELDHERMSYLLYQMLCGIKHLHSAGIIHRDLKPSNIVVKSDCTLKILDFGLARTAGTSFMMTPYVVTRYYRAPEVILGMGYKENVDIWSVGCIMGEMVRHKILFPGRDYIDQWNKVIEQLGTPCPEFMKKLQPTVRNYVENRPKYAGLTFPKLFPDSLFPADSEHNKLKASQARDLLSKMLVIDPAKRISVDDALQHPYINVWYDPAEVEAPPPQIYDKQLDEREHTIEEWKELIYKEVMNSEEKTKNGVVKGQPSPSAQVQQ

What is called EC50 is the concentration at which the effect is half-maximal. A high value points to weaker potency. `Cc1ccc(CNC(=O)c2cccc(-n3cc(NC(=O)Nc4ccccc4Cl)cn3)c2)cn1` [Example I-9, 3-(4-(3-(2-chlorophenyl)ureido)-1H-pyrazol-1-yl)-N-((6-methylpyridin-3-yl)methyl)benzamide]: the EC50 in test [1] was 200 to 1000 nM; on JNK2α2/SAPK1c, active, 200 to 1000 nM; at JNK1α1/SAP1α, Active it was more than 1000 nM.
For `Cc1cc(NC(=O)c2cccc(-n3cc(NC(=O)Nc4ccccc4Cl)cn3)c2)ccn1` [Example I-10, 3-(4-(3-(2-chlorophenyl)ureido)-1H-pyrazol-1-yl)-N-(2-methylpyridin-4-yl)benzamide], the EC50 in test [1] is less than 200 nM; at JNK2α2/SAPK1c, active, less than 200 nM; at JNK1α1/SAP1α, Active, more than 1000 nM.
As for `Cc1cccc(CNC(=O)c2cccc(-n3cc(NC(=O)Nc4ccccc4Cl)cn3)c2)n1` [Example I-11, 3-(4-(3-(2-chlorophenyl)ureido)-1H-pyrazol-1-yl)-N-((6-methylpyridin-2-yl)methyl)benzamide], the EC50 in test [1] is 200 to 1000 nM; at JNK2α2/SAPK1c, active, 200 to 1000 nM; on JNK1α1/SAP1α, Active it was more than 1000 nM.
For `Cc1cc(NC(=O)c2cccc(-n3cc(NC(=O)Nc4ccccc4Cl)cn3)c2)cc(C)n1` [Example I-22, 3-(4-(3-(2-chlorophenyl)ureido)-1H-pyrazol-1-yl)-N-(2,6-dimethylpyridin-4-yl)benzamide], the EC50 in test [1] was less than 200 nM; at JNK2α2/SAPK1c, active it was 200 to 1000 nM; on JNK1α1/SAP1α, Active, more than 1000 nM.
Consider `Cc1cc(NC(=O)c2cccc(-n3cc(NC(=O)Nc4ccccc4C)cn3)c2)ccn1` [Example I-51, N-(2-methylpyridin-4-yl)-3-(4-(3-(o-tolyl)ureido)-1H-pyrazol-1-yl)benzamide], for which the EC50 was less than 200 nM in test [1]; less than 200 nM on JNK2α2/SAPK1c, active; 200 to 1000 nM at JNK1α1/SAP1α, Active.
Take `CC(C)n1cc(NC(=O)c2cccc(-n3cc(NC(=O)Nc4ccccc4Cl)cn3)c2)cn1` [Example I-86, 3-(4-(3-(2-chlorophenyl)ureido)-1H-pyrazol-1-yl)-N-(1-isopropyl-1H-pyrazol-4-yl)benzamide]: the EC50 in test [1] is less than 200 nM; at JNK2α2/SAPK1c, active, 200 to 1000 nM; at JNK1α1/SAP1α, Active, more than 1000 nM.
For `Cn1nc(C2CC2)cc1NC(=O)c1cccc(-n2cc(NC(=O)Nc3ccccc3Cl)cn2)c1` [Example I-89, 3-(4-(3-(2-chlorophenyl)ureido)-1H-pyrazol-1-yl)-N-(3-cyclopropyl-1-methyl-1 H-pyrazol-5-yl)benzamide] the same measures were less than 200 nM, less than 200 nM and more than 1000 nM.
Regarding `Cn1ccc(NC(=O)c2cccc(-n3cc(NC(=O)Nc4ccccc4Cl)cn3)c2)n1` [Example I-98, 3-(4-(3-(2-chlorophenyl)ureido)-1H-pyrazol-1-yl)-N-(1-methyl-1H-pyrazol-3-yl)benzamide], the EC50 in test [1] was less than 200 nM; at JNK2α2/SAPK1c, active, less than 200 nM; at JNK1α1/SAP1α, Active, 200 to 1000 nM.
On to `O=C(Nc1cnn(-c2cccc(C(=O)Nc3cnn(CCN4CCCC4)c3)c2)c1)Nc1ccccc1Cl` [Example I-101, 3-(4-(3-(2-chlorophenyl)ureido)-1H-pyrazol-1-yl)-N-(1-(2-(pyrrolidin-1-yl)ethyl)-1H-pyrazol-4-yl)benzamide], for which the EC50 in test [1] is less than 200 nM; at JNK2α2/SAPK1c, active it was less than 200 nM; on JNK1α1/SAP1α, Active, more than 1000 nM.
As for `Cc1nn(CCN2CCCC2)cc1NC(=O)c1cccc(-n2cc(NC(=O)Nc3ccccc3Cl)cn2)c1` [Example I-104, 3-(4-(3-(2-chlorophenyl)ureido)-1H-pyrazol-1-yl)-N-(3-methyl-1-(2-(pyrrolidin-1-yl)ethyl)-1H-pyrazol-4-yl)benzamide], the EC50 is less than 200 nM in test [1]; less than 200 nM at JNK2α2/SAPK1c, active; more than 1000 nM on JNK1α1/SAP1α, Active.
A word on the IC50: it is the concentration that gives 50% inhibition. On to `CC(C)n1c(=O)ccc2cnc(NC3CCN(Cc4ccccc4)CC3)nc21` [Example II-6, 2-(1-Benzyl-piperidin-4-ylamino)-8-isopropyl-8H-pyrido[2,3-d]pyrimidin-7-one], for which the IC50 was more than 1000 nM in test [1] and 200 to 1000 nM on JNK1α1/SAP1α, Active.
On the same counts, the results for `O=c1ccc2cnc(N[C@H]3CC[C@H](O)CC3)nc2n1C1CCCC1` [Example II-20, Trans-8-Cyclopentyl-2-(4-hydroxy-cyclohexylamino)-8H-pyrido[2,3-d]pyrimidin-7-one] are less than 200 nM and less than 200 nM.
For `CC(C)NC(=O)N1CCC(Nc2ncc3ccc(=O)n(C4CCCC4)c3n2)CC1` [Example II-21, 4-(8-Cyclopentyl-7-oxo-7,8-dihydro-pyrido[2,3-d]pyrimidin-2-ylamino)-piperidine-1-carboxylic acid isopropylamide], the IC50 in test [1] is 200 to 1000 nM; on JNK1α1/SAP1α, Active, 200 to 1000 nM.
`O=C(NC1CCCC1)N[C@H]1CC[C@H](Nc2ncc3ccc(=O)[nH]c3n2)CC1` [Example II-28]: the IC50 in test [1] lay in the range of 200 to 1000 nM; on JNK1α1/SAP1α, Active, 200 to 1000 nM.
On to `Cn1c(=O)ccc2cnc(N[C@H]3CC[C@H](O)CC3)nc21` [Example II-29, Trans 2-((4-hydroxycyclohexyl)amino)-8-methylpyrido[2,3-d]pyrimidin-7(8H)-one], for which the 50% inhibitory concentration (IC50) is less than 200 nM in test [1] and less than 200 nM at JNK1α1/SAP1α, Active.
Regarding `c1cc2cnc(NC3CCNCC3)nc2nc1C1CC1` [Example II-40, 7-cyclopropyl-N-(piperidin-4-yl)pyrido[2,3-d]pyrimidin-2-amine], the IC50 at JNK1α1/SAP1α, Active was more than 1000 nM.
Take `CCNC(=O)N1CCC(Nc2ncc3ccc(C4CC4)nc3n2)CC1` [Example II-42, 4-((7-cyclopropylpyrido[2,3-d]pyrimidin-2-yl)amino)-N-ethylpiperidine-1-carboxamide]: at JNK1α1/SAP1α, Active, the IC50 is more than 1000 nM.
Take `c1cc2cnc(NC3CCNCC3)nc2nc1N1CCCC1` [Example II-49, N-(piperidin-4-yl)-7-(pyrrolidin-1-yl)pyrido[2,3-d]pyrimidin-2-amine]: the IC50 at JNK1α1/SAP1α, Active is more than 1000 nM.
As to `Cc1ccc(-c2ncn(-c3ccc(Nc4nccc(-c5cccc(N6CCOCC6)c5)n4)cc3)n2)cn1` [SR-3306, reference compound], the EC50 on JNK2α2/SAPK1c, active was in the range of 200 to 1000 nM.
